Source: patent US12168019B1, “8-hydroxy quinoline derivatives for enhancing telomerase reverse transcriptase (TERT) expression” (Sierra Sciences, Inc., priority 2010, dated 2024)

System: human TERT expression (hTERT mRNA transcripts)
Test: Quantitative real-time RT-PCR of hTERT mRNA transcripts in compound-treated cells; also: test concentration or dose not given here
Assay type: cell-based
Description: Telomerase is a ribonucleoprotein complex composed of the catalytic protein subunit (human telomerase reverse transcriptase or hTERT) and the RNA template. hTERT expression level can be measured by PCR.
Quantitative Reverse Transcription PCR can be run according to procedures outlined in Yajima et al. (Yajima, T. et al. Quantitative Reverse Transcription-PCR Assay of the RNA Component of Human Telomerase Using the TaqMan Fluorogenic Detection System Clinical Chemistry, 44:12, 2441-2445, 1998).
The principle of real-time PCR was first described by Heid et al. (Heid C. A., Stevens J., Livak K. J., Williams P. M. Real time quantitative PCR. Genome Res., 6: 986-994, 1996). Briefly, amplification of the target sequence is monitored per PCR cycle by detecting the fluorescence signal emitted by an internal probe that is degraded by the 5′ nuclease activity of the Taq polymerase. The emission signal accumulates in each sample, and the Ct required to reach a given fluorescence threshold is determined (Ct stands for Cycle Threshold and is a measure of the number of PCR cycles that are required to amplify a target—thus, a lower Ct score means that there is more abundant hTERT mRNA). Thus, the C1 value of a sample inversely correlates to the quantity of the starting cDNA which correlates to the number of mRNA transcripts. Using the cDNA of known quantity, a standard curve can be generated and used to determine the starting amount of mRNA transcripts based on the […] of each sample.
Quantitative real-time PCR can be done on cDNA from test compound-treated and nontreated cells by use of a ABI Prism 7900 Sequence Detection System (PE Applied Biosystems, Foster City, CA) following the Assays-on-Demand protocol (PE Applied Biosystems, Foster City, CA). Quantitative data can be analyzed using the Sequence Detection System software version 2.1 (PE Applied Biosystems).
The following compounds were tested in assays designed to identify compounds that enhance human TERT expression. The compounds turned on human TERT expression in these assays.

SMILES	Average Number of hTERT Transcripts
CCCC(=O)NC(c1ccc(N(CC)CC)cc1)c1cc(Cl)c2cccnc2c1O (stereo not shown) [Compound 1070]	68.65
CCCCC(=O)NC(c1cccs1)c1cc(Cl)c2cccnc2c1O (stereo not shown) [Compound 1067]	16.2
Cc1ccc(C(NC(=O)C(C)C)c2ccc3cccnc3c2O)cc1 (stereo not shown) [Compound 1088]	191.81
COc1ccc(C(NC(C)=O)c2ccc3cccnc3c2O)cc1OC (stereo not shown) [Compound 1023]	160.65
O=C(COc1ccccc1)NC(/C=C/c1ccccc1)c1cc(Cl)c2cccnc2c1O (stereo not shown) [Compound 1015]	63.93
CCCC(=O)NC(c1cccs1)c1cc([N+](=O)[O-])c2cccnc2c1O (stereo not shown) [Compound 1048]	58.04
CC(C)C(=O)NC(c1ccc(Cl)cc1Cl)c1ccc2cccnc2c1O (stereo not shown) [Compound 1042]	10.53
Cc1ccc2ccc(C(Nc3ccccn3)c3ccccc3Cl)c(O)c2n1 (stereo not shown) [Compound 1111]	35.20
CCC(=O)NC(c1ccc(C)cc1)c1cc([N+](=O)[O-])c2cccnc2c1O (stereo not shown) [Compound 1049]	49.12
Oc1c(C(Nc2ccccn2)c2cccc(Cl)c2Cl)ccc2cccnc12 (stereo not shown) [Compound 1006]	25.82
Oc1c(C(Nc2ccccn2)c2ccc(OC3CCCC3)cc2)ccc2cccnc12 (stereo not shown) [Compound 1004]	12.11
Cc1ccc(C(NC(=O)C2CCCCC2)c2ccc3cccnc3c2O)cc1 (stereo not shown) [Compound 1047]	43.89
Cc1ccc2c(I)cc(I)c(O)c2n1 [Compound 1105]	51.56
CCOc1cc(C(NC(C)=O)c2cc([N+](=O)[O-])c3cccnc3c2O)ccc1O (stereo not shown) [Compound 1033]	28.91
CC(=O)NC(c1ccc(C(C)C)cc1)c1cc(Cl)c2cccnc2c1O (stereo not shown) [Compound 1057]	12.42
COc1cccc(C(=O)NC(c2ccc(OC)c(OC)c2)c2cc(Cl)c3cccnc3c2O)c1 (stereo not shown) [Compound 1013]	40.42
CCCCC(=O)NC(c1ccco1)c1cc([N+](=O)[O-])c2cccnc2c1O (stereo not shown) [Compound 1055]	28.89
CC(C)C(=O)NC(c1ccc(C(C)C)cc1)c1cc([N+](=O)[O-])c2cccnc2c1O (stereo not shown) [Compound 1071]	70.74
CCOCc1cc(CN2CCCCC2)c(O)c2ncccc12 [Compound 1099]	67.59
CC1CCN(Cc2cc(COC(C)C)c3cccnc3c2O)CC1 [Compound 1103]	70.5
CCC(=O)NC(c1ccccc1OC)c1cc(Cl)c2cccnc2c1O (stereo not shown) [Compound 1043]	15.13
CCC(=O)NC(c1ccccc1Cl)c1cc([N+](=O)[O-])c2cccnc2c1O (stereo not shown) [Compound 1074]	49.89
Cc1ccc(S(=O)(=O)Nc2cc(Cl)c(O)c3ncccc23)cc1 [Compound 1092]	96.33

SMILES	Average Number of hTERT Transcripts
CCC(=O)NC(c1ccc(OC)c(OC)c1)c1cc(Cl)c2cccnc2c1O (stereo not shown) [Compound 1032]	39.96
CC(=O)NC(c1ccccc1)c1cc([N+](=O)[O-])c2cccnc2c1O (stereo not shown) [Compound 1050]	47.68
Oc1c(C(Nc2ccccn2)c2ccc(Cl)c(Cl)c2)ccc2cccnc12 (stereo not shown) [Compound 1082]	7.54
CCCC(=O)NC(c1ccc(N(C)C)cc1)c1cc(Cl)c2cccnc2c1O (stereo not shown) [Compound 1066]	43.68
CC(C)C(=O)NC(c1ccc2c(c1)OCO2)c1cc([N+](=O)[O-])c2cccnc2c1O (stereo not shown) [Compound 1064]	52.74
Cc1ccnc(NC(c2cccc(Cl)c2)c2ccc3ccc(C)nc3c2O)c1 (stereo not shown) [Compound 1080]	26.36
O=C(CCc1ccccc1)NC(c1ccc2c(c1)OCO2)c1ccc2cccnc2c1O (stereo not shown) [Compound 1065]	24.47
Oc1c(C(Nc2ccccn2)c2c(Cl)cccc2Cl)ccc2cccnc12 (stereo not shown) [Compound 1009]	50.29
COC(=O)c1ccc(C(Nc2cc(C)ccn2)c2ccc3ccc(C)nc3c2O)cc1 (stereo not shown) [Compound 1008]	43.18
CC(C)C(=O)NC(c1ccc(C(C)C)cc1)c1cc(Cl)c2cccnc2c1O (stereo not shown) [Compound 1062]	47.98
CC(=O)NC(c1ccc(C)cc1)c1ccc2cccnc2c1O (stereo not shown) [Compound 1024]	165.68
CCCCC(=O)NC(c1ccccc1OC)c1cc([N+](=O)[O-])c2cccnc2c1O (stereo not shown) [Compound 1027]	19.72
CCCCC(=O)NC(c1ccc(Cl)cc1)c1cc([N+](=O)[O-])c2cccnc2c1O (stereo not shown) [Compound 1054]	8.59
CCN1CCN(Cc2ccc3cccnc3c2O)CC1 [Compound 1089]	38.29
CCCCC(=O)NC(c1ccc(OC)cc1)c1cc([N+](=O)[O-])c2cccnc2c1O (stereo not shown) [Compound 1040]	25.16
Oc1ccc(CN2CCN(c3cccc(Cl)c3)CC2)c2cccnc12 [Compound 1113]	29.15
CCC(=O)NC(c1ccccc1OC)c1cc([N+](=O)[O-])c2cccnc2c1O (stereo not shown) [Compound 1051]	45.24
CC(C)OCc1cc(CN2CCCCC2)c(O)c2ncccc12 [Compound 1102]	351.44
CC(=O)NC(c1ccc(Cl)cc1)c1cc([N+](=O)[O-])c2cccnc2c1O (stereo not shown) [Compound 1037]	55.41
CCC(=O)NC(c1ccco1)c1cc(Cl)c2cccnc2c1O (stereo not shown) [Compound 1039]	30.9
CCC(=O)NC(/C=C/c1ccccc1)c1cc([N+](=O)[O-])c2cccnc2c1O (stereo not shown) [Compound 1035]	66.72
CC(C)C(=O)NC(c1ccccc1)c1cc([N+](=O)[O-])c2cccnc2c1O (stereo not shown) [Compound 1110]	35.19
CCC(=O)NC(c1ccccc1Cl)c1cc(Cl)c2cccnc2c1O (stereo not shown) [Compound 1041]	20.78

SMILES	Average Number of hTERT Transcripts
CCCCC(=O)NC(/C=C/c1ccccc1)c1cc([N+](=O)[O-])c2cccnc2c1O (stereo not shown) [Compound 1069]	101.8
Oc1c(Br)cc(Br)c2cccnc12 [Compound 1019]	271.75
CCC(=O)NC(c1ccc(N(C)C)cc1)c1ccc2cccnc2c1O (stereo not shown) [Compound 1001]	12.47
CC(=O)NC(c1ccc(C(C)C)cc1)c1ccc2cccnc2c1O (stereo not shown) [Compound 1030]	26.47
COc1ccc(C(=O)NC(c2ccco2)c2cc(Cl)c3cccnc3c2O)cc1 (stereo not shown) [Compound 1012]	12.01
CC(=O)NC(c1ccco1)c1cc([N+](=O)[O-])c2cccnc2c1O (stereo not shown) [Compound 1034]	44.71
CCCC(=O)NC(c1ccco1)c1cc(Cl)c2cccnc2c1O (stereo not shown) [Compound 1077]	15.88
COc1ccc(C(=O)NC(c2ccc(Cl)cc2)c2cc(Cl)c3cccnc3c2O)cc1 (stereo not shown) [Compound 1014]	11.55
Oc1c(C(Nc2ccccc2Cl)c2ccccn2)ccc2cccnc12 (stereo not shown) [Compound 1095]	3.46
CCCCC(=O)NC(c1ccc(OC)cc1)c1cc(Cl)c2cccnc2c1O (stereo not shown) [Compound 1061]	128.91
CCCC(=O)NC(c1ccc(C(C)C)cc1)c1cc([N+](=O)[O-])c2cccnc2c1O (stereo not shown) [Compound 1056]	62.15
COCc1cc(CN2CCCCC2)c(O)c2ncccc12 [Compound 1098]	102.7
O=S1(=O)CCC(N2COc3c(cc(Cl)c4cccnc34)C2)C1 (stereo not shown) [Compound 1107]	7.97
CCCCC(=O)NC(c1ccccc1Cl)c1cc([N+](=O)[O-])c2cccnc2c1O (stereo not shown) [Compound 1031]	44.8
CCCCC(=O)NC(c1ccc(OC)c(OC)c1)c1cc([N+](=O)[O-])c2cccnc2c1O (stereo not shown) [Compound 1053]	47.54
CC(C)C(=O)NC(c1ccco1)c1ccc2cccnc2c1O (stereo not shown) [Compound 1087]	240.41
CCN(CC)c1ccc(C(NC(=O)C(C)C)c2ccc3cccnc3c2O)cc1 (stereo not shown) [Compound 1060]	65.91
COc1cccc(C(=O)NC(/C=C/c2ccccc2)c2cc(Cl)c3cccnc3c2O)c1 (stereo not shown) [Compound 1017]	96.98
CCCOCc1cc(CN2CCN(C)CC2)c(O)c2ncccc12 [Compound 1101]	24.8
CN1CCN(Cc2cc(COCc3ccccc3)c3cccnc3c2O)CC1 [Compound 1003]	10.05
Cc1ccc2ccc(C(Nc3ccccn3)c3ccccc3Br)c(O)c2n1 (stereo not shown) [Compound 1108]	31.13
